According to patent US9738932B2, “Biomarkers for cardiovascular side-effects induced by cox-2 inhibitory compounds” (FIRALIS SAS, priority 2005, dated 2017):

What was measured:
CXCL10 (IP10) = experiment: ELISA of CXCL10 (IP10) protein in monkey serum and plasma; type: in vivo, cynomolgus monkey (Macaca fascicularis); settings: monkey #A60055
Excerpt: FIG. 6. ELISA confirmation of CXCL10 (IP10) protein level in monkey serum samples.
These peripheral biomarkers might allow safe use of cox-2 inhibitory compounds in clinics and selection of cox-2 inhibitory follow-up compounds without cardiovascular toxicity.

[1] = tested on: INFγ inducible proteins in serum and plasma; experiment: Rules-Based Medicine (RBM) human MAP multiplex protein profiling in serum and plasma; type: in vivo, cynomolgus monkey (Macaca fascicularis); settings: monkey #A60055
Excerpt: To obtain biomarkers predicting cardiovascular adverse effect of tested compounds/drugs, expression levels of proteins have been analysed in cynomolgus monkey serum and plasma from the present analysis using human Multi-Analyte Profile (MAP) Technology. Human MAP could be used to measure protein levels of more than 80 antigens in monkey serum and plasma (Rules-Based Medicine Inc (RBM®), Austin, Tex. USA).
Soluble proteins present in serum and plasma of the same monkeys have been measured using a multiplex assay produced by Rules-Based Medicine (RBM®) of Texas.

CS(=O)(=O)c1ccc(C2=C(c3ccccc3)C(=O)OC2)cc1 [Vioxx®, rofecoxib]
CXCL10 chemokine protein expression by ELISA (CXCL10 (IP10)): Increased expression
level of INFγ inducible proteins in serum and plasma (multiplex assay) [1]: increased level
